Assay: Antagonist activity against PAR2 in human HT29 cells assessed as inhibition of UTP-induced Ca2+ responses pre-incubated for 30 mins before UTP stimulation by FLIPR assay

IC50: 4.4 µM
Compound: CCOC(=O)[C@H]1CCCN(C(=O)c2cn3nc(-c4ccc(F)cc4)cc(C(F)(F)F)c3n2)[C@@H]1C
